This note sets out measurements from patent publication US9090608B2, “Pharmaceutical composition for preventing or treating osteoporosis or obesity comprising phenyltetrazole derivative” (KOREA RESEARCH INSTITUTE OF CHEMICAL TECHNOLOGY, priority 2009, dated 2015).

Common to all, as to assay type: cell-based
Assay [1] deals with 3T3-L1 preadipocytes. Nature of the assay: Differentiation of 3T3-L1 cells into adipocytes (Oil-red O staining). The conditions noted are these: for Inhibition of adipocyte differentiation (Oil-red O staining): compound added at each medium replacement, after 8 days. On the procedure:
3T3-L1 preadipocytes (ATCC CL-173) were dispersed in a DMEM medium comprising 10% FBS (fatal bovine serum , and then confluently cultivated for 48 hours in a 24-well plate (3×10^4 cells/well). 2 μM rosiglitazone, 5 μg/mL insulin, and 1 μM dexamethasone were added thereto to induce adipocyte differentiation.
After 48 hours, the medium was replaced with a DMEM comprising 5 μg/mL insulin and 10% FBS (fatal bovine serum), and 48 hours later, the medium was replaced with a DMEM comprising 10% FBS. Then, the medium was replaced every 48 hours to evaluate adipocyte differentiation. The inventive compounds were each added during the replacement of the medium. After 8 days, the cells were fixed with 10% formalin, and Oil-red O staining was conducted to confirm adipocytes generated in cells.

The target of assay [2] is T1, protein TAZ (Homo sapiens, UniProt Q9GZV5).
T1 construct: introducing full length TAZ cDNA synthesized by PCR method into vector pEGFP; expressed in transfected cells
Kind of assay: Stimulating TAZ protein migration toward nucleus (GFP-TAZ high-content imaging). The following applies: 0.5 h, after 30 minutes, Cos cells, percentage based on non-treated control cells, read-out: Expression (%): GFP expression of protein TAZ in the nucleus. How it is done: Vector pEGFP-TAZ in which GFP (green fluorescence protein) is linked to protein TAZ was prepared, and nucleus specific histone protein (RFP-H2B) expression vector having introduced RFP (red fluorescence protein) therein was prepared. The vector pEGFP-TAZ was prepared by introducing full length TAZ cDNA synthesized by PCR method into vector pEGFP (Invitrogen, Carlsbad, Calif., USA) and then cloning. The expression vector RFP-H2B was prepared by introducing full length histone H2B cDNA into expression vector RFP (Clontech Laboratories, Inc., Palo Alto, Calif., USA) and then cloning.
Cos? cells (ATCC, Manassas, Va.) were distributed to each well of a 96-well plate (5×10^3 cells/well) and stabilized, and then vectors pEGFP-TAZ and RFP-H2B were introduced into the cells by employing Effectene™ (Qiagen). After 48 hours, the cells were treated with each of the inventive compounds to a concentration of 10 μM. After 30 minutes, the movement of green fluorescent color toward the cell nucleus was observed continually by employing BD Pathway™ high-content bioimager (BD bioscience). Using a quantification program (BD IPLab™ for Pathway and BD™ Image Data Explorer), GFP expression in the nucleus of RFP-expressed cells was quantified.
GFP expressions of protein TAZ in the nucleus were analyzed and calculated in percentage term based on that of non-treated cells in a control group, which are shown in Table 3.

For assay [3], the system named is PPARγ. Kind of assay: TAZ activity of inhibiting PPARγ function (aP2-luc reporter in 293T cells). The conditions noted are these: Homo sapiens, HEK-293T, 24 h, percentage based on inhibitory effect in non-treated control cells, read-out: Increased inhibition (%) of aP2 promoter activity. An excerpt: 293T cells (ATCC) were placed in the wells of a 48-well plate (1×10^5 cells/well) and stabilized. Introduced to the cells were PPARγ and TAZ expression vectors together with vectors aP2-luc (adipose fatty acid binding protein 2 promoter linked to luciferase) and pCMVβ Hong et al., Science 2005; 309:1074-8]. For observing the effect on transcription activation of the target gene by the PPARγ or TAZ protein expression, aP2-luc reporter gene was also introduced into the cells. For calibration of the introduction efficiency in cells, vector pCMVβ was introduced in cells in same amounts and the β-galactosidase activity was measured to calibrate the luciferase activity.
After 24 hours, the cells were treated with each of the inventive compounds to a concentration of 10 μM and then further cultivated for 24 hours. Proteins of the resulting cells were extracted with a lysis solution comprising NP-40, and thus luciferase activity was measured (Promega, Sunnyvale, Calif., USA).
Increased inhibitory effect on the aP2 promoter activity was analyzed and the results were calculated in percentage term based on the inhibitory effect on the aP2 promoter activity observed for the non-treated cells in a control group.

The test system of assay [4] is RUNX2. Kind of assay: TAZ activity of stimulating RUNX2 function (6xOSE-luc reporter in 293T cells). The following applies: for activity at 10 µM: Homo sapiens, HEK-293T, 24 hours, 293T cells, percentage based on non-treated control cells, read-out: Activity (%): osteocalcin promoter activity; for Additional stimulating activity on TAZ stimulation of RUNX2: 10 μM, considered additional when value exceeds 570% of the average increase by protein TAZ. How it is done:
Introduced in 293T cells were introduced RUNX2 and TAZ expression vector together with 6×OSE-luc (osteocalcin-specific element linked to luciferase, six copies of RUNX2-binding site in the osteocalcin promoter linked to luciferase) [Hong et al., Science 2005; 309:1074-8]. This test was for an evaluation of an activity of the inventive compounds in stimulating the luciferase activity which increases when RUNX2 binds to TAZ.
After 24 hours, the cells were treated with each of the inventive compounds to a concentration of 10 μM and then further cultivated for 24 hours. The procedure of Test 2 was repeated to extract the cell protein, and then reporter gene analysis was conducted to quantify the effect of the inventive compounds on the TAZ activity in stimulating RUNX2. For comparing the transformation efficaciency, β-galactosidase expression vector (pCMVβ) was introduced to 293T cells and the β-galactosidase activity was measured for calibration.
The osteocalcin promoter activity was analyzed in percentage term based on that of non-treated cells in a control group. When the value exceeds 570% of the average increase by protein TAZ, the compound was considered to have an additional stimulating activity.

Assay [5] concerns C3H10T1/2 cells. Nature of the assay: Differentiation of C3H10T1/2 cells into osteoblasts (Alizarin red S staining). The following applies: 10 μM, after 20 days. On the procedure: C3H10T1/2 cells (ATCC CCL 226) were diluted in a α-MEM medium comprising 10% FBS, cultivated in a 96-well plate (1×10^4 cells/well) for 48 hours, and the medium was replaced every 48 hours to observe the osteoblast differentiation. On the initiation of differentiation, the medium was treated with 10 μM of each of the inventive compounds.
After 20 days, the cells were fixed with 70% ethanol and stained with an Alizarin red S solution to confirm increased calcium in osteocytes. In the Alizarin red staining test, the degrees of osteoblast differention can be identified by the intensity of red color.

T1 sequence (Q9GZV5 whole entry): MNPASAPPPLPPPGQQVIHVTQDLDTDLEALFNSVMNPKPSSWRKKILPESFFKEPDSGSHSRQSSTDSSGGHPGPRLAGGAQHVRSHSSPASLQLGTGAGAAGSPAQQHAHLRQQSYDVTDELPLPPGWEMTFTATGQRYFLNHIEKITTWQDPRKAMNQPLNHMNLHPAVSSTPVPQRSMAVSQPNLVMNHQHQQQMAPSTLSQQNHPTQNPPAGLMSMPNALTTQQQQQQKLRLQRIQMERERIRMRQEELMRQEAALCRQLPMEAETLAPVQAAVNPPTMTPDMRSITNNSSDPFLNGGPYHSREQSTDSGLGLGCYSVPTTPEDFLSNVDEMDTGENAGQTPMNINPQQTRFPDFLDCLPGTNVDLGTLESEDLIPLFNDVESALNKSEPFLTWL

As a reminder, the inhibition is the change of the read-out against control, counted positive when it falls. As to `CCCCc1nc2cc(C(O)c3ccccc3)c(C(OC)OC)nc2n1Cc1ccc(-c2ccccc2-c2nnnn2C(C)OCC)cc1` (centres unmarked) [VII, (2-butyl-5-dimethoxymethyl-3-{2′-[1-(1-ethoxyethyl)-1H-tetrazol-5-yl]biphenyl-4-ylmethyl}-3H-imidazo[4,5-b]pyridin-6-yl)phenylmethanol], in assay [1] (treating at a higher concentration), the “Inhibition of adipocyte differentiation at a higher concentration” value was “markedly increased inhibitory effect”. Also, the activity at 10 µM stood at 160% in assay [2] and 476% in assay [4]. In addition, the inhibition at 10 µM in assay [3] was determined as 46.7%.
Take `CCCCc1nc2cc(/C=C/c3ccccc3)c(C(=O)OC)cc2n1Cc1ccc(-c2ccccc2-c2nnn[nH]2)cc1` [XIII, methyl 2-butyl-5-styryl-1-[2′-(1H-tetrazol-5-yl)biphenyl-4-ylmethyl]-1H-benzimidazol-6-carboxylate]: in assay [3], the inhibition at 10 µM was found to be 39.9%. In addition, the activity at 10 µM in assay [4] was 569%.
Take `CCCCc1nc2c(C)cc(CO)nc2n1Cc1ccc(-c2ccccc2-c2nnn[nH]2)cc1` [V, {2-butyl-7-methyl-3-[2′-(1H-tetrazol-5-yl)biphenyl-4-ylmethyl]-3H-imidazo[4,5-b]pyridin-5-yl}methanol]: the results for the activity at 10 µM in assay [2] and in assay [4] were 151% and 468%, respectively. Also, in assay [3], the inhibition at 10 µM turned out to be 32.3%. Moreover, in assay [5], the “Stimulation of osteoblast differentiation (Alizarin red staining)” value is “osteoblast differentiation was stimulated”.
As for `CCCCc1nc2cc(Br)c(COC(C)=O)nc2n1Cc1ccc(-c2ccccc2-c2nnn[nH]2)cc1` [X, 6-bromo-2-butyl-3-[2′-(1H-tetrazol-5-yl)biphenyl-4-ylmethyl]-3H-imidazo[4,5-b]pyridin-5-ylmethyl acetate], the inhibition at 10 µM in assay [3] turned out to be 57.5%. In assay [4], the “Additional stimulating activity on TAZ stimulation of RUNX2” value (“Additional stimulating activity” for short) is recorded as “additional stimulating activity was observed” and the activity at 10 µM stood at 672%.
For the compound `CCCCc1nc2cc(Br)c(COC(C)=O)nc2n1Cc1ccc(-c2ccccc2-c2nnnn2C(C)OCC)cc1` (centres unmarked) [IX, 6-bromo-2-butyl-3-{2′-[1-(1-ethoxyethyl)-1H-tetrazol-5-yl]biphenyl-4-ylmethyl}-3H-imidazo[4,5-b]pyridin-5-ylmethyl acetate], the activity at 10 µM in assay [2] turned out to be 147%. Moreover, the inhibition at 10 µM in assay [3] turned out to be 22.7%. For the same compound, in assay [4], the “Additional stimulating activity” value was “additional stimulating activity was observed” and the activity at 10 µM amounted to 676%.
For the compound `CCCCc1nc2c(C)c(-c3ccccc3)c(COCSC)nc2n1Cc1ccc(-c2ccccc2-c2nnn[nH]2)cc1` [XI, 2-butyl-7-methyl-5-((methylsulfanylmethoxy)methyl)-6-phenyl-3-[2′-(1H-tetrazol-5-yl)biphenyl-4-ylmethyl]-3H-imidazo[4,5-b]pyridine], in assay [2], the activity at 10 µM was 134%. In addition, in assay [4], the “Additional stimulating activity” value is “additional stimulating activity was observed” and the activity at 10 µM turned out to be 754%.
As for `CCCCc1nc2cc(-c3cccc[n+]3[O-])c(CF)nc2n1Cc1ccc(-c2ccccc2-c2nnn[nH]2)cc1` [VI, 2-butyl-5-fluoromethyl-6-(1-oxypyridin-2-yl)-3-[2′-(1H-tetrazol-5-yl)biphenyl-4-ylmethyl]-3H-imidazo[4,5-b]pyridine], the activity at 10 µM in assay [2] is 132%; in assay [4], 483%. In addition, the inhibition at 10 µM in assay [3] came out at 51.3%.
Regarding `CCCCc1nc2cc(-c3cccnc3)c(C)nc2n1Cc1ccc(-c2ccccc2-c2nnn[nH]2)cc1` [III, 2-butyl-5-methyl-6-pyridin-3-yl-3-[2′-(1H-tetrazol-5-yl)biphenyl-4-ylmethyl]-3H-imidazo[4,5-b]pyridine], in assay [1], the “Inhibition of adipocyte differentiation (Oil-red O staining)” value is “adipocyte differentiation was inhibited”. The activity at 10 µM in assay [2] was determined as 157%; in assay [4], 259%. For the same compound, in assay [3], the inhibition at 10 µM was greater than 60%. In assay [5], the “Stimulation of osteoblast differentiation (Alizarin red staining)” value is “osteoblast differentiation was stimulated”.
Regarding `CCCCc1nc2cc(-c3ccccn3)c(C(=O)OC)nc2n1Cc1ccc(-c2ccccc2-c2nnn[nH]2)cc1` [IV, methyl 2-butyl-6-pyridin-2-yl-3-[2′-(1H-tetrazol-5-yl)biphenyl-4-ylmethyl]-3H-imidazo[4,5-b]pyridine-5-carboxylate], in assay [1], the “Inhibition of adipocyte differentiation (Oil-red O staining)” value is given as “adipocyte differentiation was inhibited”. The activity at 10 µM was determined as 135% in assay [2] and 463% in assay [4].
Consider `CCCCc1nc2cc(C(O)c3ccccc3)c(C(OC)OC)nc2n1Cc1ccc(-c2ccccc2-c2nnn[nH]2)cc1` (centres unmarked) [VIII, {2-butyl-5-dimethoxymethyl-3-[2′-(1H-tetrazol-5-yl)biphenyl-4-ylmethyl]-3H-imidazo[4,5-b]pyridin-6-yl}phenylmethanol], for which the inhibition at 10 µM in assay [3] is greater than 60%. In assay [4], the “Additional stimulating activity” value was “additional stimulating activity was observed” and the activity at 10 µM was 688%.
Turning to `CCCCc1nc2cc(C(=O)OC)c(/C=C/c3ccccc3)cc2n1Cc1ccc(-c2ccccc2-c2nnn[nH]2)cc1` [XII, methyl 2-butyl-6-styryl-1-[2′-(1H-tetrazol-5-yl)biphenyl-4-ylmethyl]-1H-benzimidazol-5-carboxylate], the “Inhibition of adipocyte differentiation (Oil-red O staining)” value in assay [1] is recorded as “adipocyte differentiation was inhibited”. Besides, the activity at 10 µM in assay [2] worked out at 149%; in assay [4], 296%. Further, in assay [3], the inhibition at 10 µM was greater than 60%.
`CCc1nc2c(C)cc(CO)nc2n1Cc1ccc(-c2ccccc2-c2nnn[nH]2)cc1` [II, {2-ethyl-7-methyl-3-[2′-(1H-tetrazol-5-yl)biphenyl-4-ylmethyl]-3H-imidazo [4,5-b]pyridin-5-yl}methanol]: the results for the activity at 10 µM in assay [2] and in assay [4] were 130% and 473%, respectively. Also, the inhibition at 10 µM in assay [3] was found to be 43.2%.
